Here are results for 1 compound from patent US20220062299A1, “USE OF GLUCOCORTICOID STEROIDS IN PREVENTING AND TREATING CONDITIONS OF MUSCLE WASTING, AGING AND METABOLIC DISORDER” (NORTHWESTERN UNIVERSITY, priority 2018, published 2022).

The data set deals with mdx muscles. In words: Muscle metabolomics of mdx quadriceps. It is filed as in vivo, mouse. Particulars: 4 wk exposure. How it is done:
Muscle metabolomics. Total hydrophilic metabolite content was extracted from quadriceps muscle tissue at treatment endpoint through methanol-water (80:20) extraction, adapting conditions described previously (Bruno et al., 2018). Briefly, total metabolite content from quadriceps muscle was obtained from approximately 100 mg (wet weight) quadriceps muscle tissue per animal. Frozen (−80° C.) muscle was pulverized in liquid nitrogen and homogenized with approximately 250 μl 2.3 mm zirconia/silica beads (Cat #11079125z, BioSpec, Bartlesville, Okla.) in 1 ml methanol/water 80:20 (vol/vol) by means of Mini-BeadBeater-16 (Cat #607, Biospec, Bartlesville, Okla.) for 1 minute. After centrifuging at 5000 rpm for 5 minutes, 200 μl of supernatant were transferred into a tube pre-added with 800 μL of ice-cold methanol/water 80% (vol/vol). Samples were vortexed for 1 minute, and then centrifuged at approximately 20,160×g for 15 minutes at 4° C. Metabolite-containing extraction solution was then dried using SpeedVac (medium power). 200 ul of 50% Acetonitrile were added to the tube for reconstitution following by overtaxing for 1 minute. Samples solution were then centrifuged for 15 minutes at 20,000 g, 4° C. Supernatant was collected for LC-MS analysis for Hydrophilic Metabolites Profiling as follows. Samples were analyzed by High-Performance Liquid Chromatography and High-Resolution Mass Spectrometry and Tandem Mass Spectrometry (HPLC-MS/MS). Specifically, system consisted of a Thermo Q-Exactive in line with an electrospray source and an Ultimate3000 (Thermo) series HPLC consisting of a binary pump, degasser, and auto-sampler outfitted with a Xbridge Amide column (Waters; dimensions of 4.6 mm×100 mm and a 3.5 μm particle size). The mobile phase A contained 95% (vol/vol) water, 5% (vol/vol) acetonitrile, 20 mM ammonium hydroxide, 20 mM ammonium acetate, pH=9.0; B was 100% Acetonitrile. […] The capillary of the ESI source was set to 275° C., with sheath gas at 45 arbitrary units, auxiliary gas at 5 arbitrary units and the spray voltage at 4.0 kV. In positive/negative polarity switching mode, an m/z scan range from 70 to 850 was chosen and MS1 data was collected at a resolution of 70,000. The automatic gain control (AGC) target was set at 1×10^6 and the maximum injection time was 200 ms. The top 5 precursor ions were subsequently fragmented, in a data-dependent manner, using the higher energy collisional dissociation (HCD) cell set to 30% normalized collision energy in MS2 at a resolution power of 17,500. The sample volumes of 25 μl were injected. Data acquisition and analysis were carried out by Xcalibur 4.0 software and Tracefinder 2.1 software, respectively (both from Thermo Fisher Scientific). Metabolite levels were analyzed as peak area normalized to wet tissue weight and total […] content. Gene-metabolite pathway enrichment was conducted using the MetaboAnalyst platform (v4.0; Joint Pathway Analysis mode) (Chong et al., 2018). Pulsatile glucocorticoid exposure enhanced mitochondrial respiration in dystrophic muscle through BCAA. […] This correlated with increased catabolism of BCAAs, seen as reduced levels of precursors and intermediates and increased levels of oxoglutarate and succinate in the TCA cycle (FIG. 1B, center). […] Opposing shifts were confirmed by HPLC analyses of muscle ATP and NAD^+and by resting blood lactate (FIGS. 5A and 5B), and these changes correlated with parallel shifts in muscle glycogen content (FIG. 5C).

Regarding `C[C@]12C=CC(=O)C=C1CC[C@@H]1[C@@H]2C(=O)C[C@@]2(C)[C@H]1CC[C@]2(O)C(=O)CO` [prednisone, Prednisone], under “daily prednisone”, the “BCAA and glucose catabolism” value was “substantial impairment”; the “NAD+ and NADH in muscle” value is “loss”. Moreover, for the setting “weekly prednisone”, the “Glycolysis (levels of pyruvate and lactate)” value was “increased”; the “catabolism of BCAAs” value is on record as “increased”. Further, the “ATP, phosphocreatine, and NAD+ in muscle” value (weekly prednisone, vs vehicle) is “increased”.
